The source of these data is US20250136607A1 (REGOR PHARMACEUTICALS, INC., priority 2021, published 2025).

SMILES strings stand for the structures. Where only a bound is given, the exact number is not on record here.

The assay has as its target Protein arginine deiminase 4 (PAD4) (Homo sapiens, UniProt Q9UM07). The experiment in a line: PAD4 ammonia release assay. Format: biochemical. The note with it: PAD4 ammonia release assay, BAEE substrate, 60 min at RT; read-out: Average IC50 Abs. The procedure: 1) Compound preparation: The compounds were diluted to 80× final concentrations. 2) The compounds were transferred to a 384-well assay plate by Tecan. DMSO: 1.25%. 3) Preparation of 1×Assay buffer: 100 mM HEPES, PH=8.0, 2 mM CaCl2, 50 mM NaCl, 0.1 mM TCEP, 0.6 mg/ml BSA. 4) 2× enzyme working solution (PAD4:20 nM) was prepared with assay buffer, and 10 μL of the obtained working solution were added to the 384-well assay plates. 5) The plate was centrifuged at 1000 rpm for 1 min. 6) After the centrifuge, the plate was incubated at RT for 15 min. 7) 2×BAEE substrate mix (600 μM) was prepared with assay buffer and 10 μL of the obtained substrate mix were added to each well. 8) The plate was centrifuged at 1000 rpm for 1 min and then incubated at RT for 60 min. 9) 1.5× detection mix (DTT:4 mM, OPA:3 mM, EDTA: 30 mM) was prepared, and 10 μL of the mix were added to the plate. 10) The plate was centrifuged at 1000 rpm for 1 min and then incubated at RT for 120 min. 11) The 384-well plates were placed into the Envision (PerkinElmer) and the assay data were collected.
The percent (%) inhibition at each concentration of compound was calculated based on and relative to the signal in the HPE (50 μM ref. compound) and ZPE (1.25% DMSO) wells included within each assay plate. The HPE worked as 100% inhibition, and the ZPE worked as 0% inhibition. The concentrations and % inhibition values for tested compounds were plotted and the concentration of compound required for 50% inhibition (IC50) was determined with a Four-parameter logistic dose response equation. The endpoint value (IC50) for the reference compound was evaluated in each experiment as a quality control measure. If the endpoint value is within 3-fold of the expected value, then the experiment quality is deemed as acceptable. The results are provided in Table 1 below. ≤0.1 μM=“++++”; >0.1 and ≤0.5 μM=“+++”; >0.5 and ≤5.0 μM=“++”; >5.0 μM=“+”. “−”=not available.

Chain of Protein arginine deiminase 4 (PAD4) (Q9UM07 whole entry): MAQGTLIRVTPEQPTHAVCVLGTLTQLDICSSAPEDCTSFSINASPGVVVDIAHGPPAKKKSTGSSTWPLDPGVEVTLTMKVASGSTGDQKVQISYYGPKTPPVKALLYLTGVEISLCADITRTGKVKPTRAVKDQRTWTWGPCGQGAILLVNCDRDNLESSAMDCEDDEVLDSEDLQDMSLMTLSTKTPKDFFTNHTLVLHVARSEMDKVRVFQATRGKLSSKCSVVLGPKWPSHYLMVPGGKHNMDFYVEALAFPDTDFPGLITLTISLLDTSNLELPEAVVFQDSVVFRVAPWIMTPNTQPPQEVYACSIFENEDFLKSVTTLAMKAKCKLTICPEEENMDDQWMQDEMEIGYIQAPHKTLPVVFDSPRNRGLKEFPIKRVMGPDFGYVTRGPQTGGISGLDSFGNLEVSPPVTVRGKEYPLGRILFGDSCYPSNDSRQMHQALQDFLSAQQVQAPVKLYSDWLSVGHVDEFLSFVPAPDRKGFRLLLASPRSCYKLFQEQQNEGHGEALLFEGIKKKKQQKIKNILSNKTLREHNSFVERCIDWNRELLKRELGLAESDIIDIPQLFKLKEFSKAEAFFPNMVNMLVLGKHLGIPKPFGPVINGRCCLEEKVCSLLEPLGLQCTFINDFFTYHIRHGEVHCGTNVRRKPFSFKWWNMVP

Broadly, the IC50 is the concentration that inhibits the measured activity by half. In the case of `COc1cc(C(=O)N2CCC[C@@H](N)C2)cc2nc(-c3cc4cccc5c4n3CCN5Cc3ccccc3)n(C)c12` [Example 24, (R)-(3-aminopiperidin-1-yl)(2-(1-benzyl-2,3-dihydro-1H-pyrrolo[1,2,3-de]quinoxalin-5-yl)-7-methoxy-1-methyl-1H-benzo[d]imidazol-5-yl)methanone], the IC50 was greater than 5 µM.
For `COc1cc(C(=O)N2CCC[C@@H](N)C2)cc2nc(-c3cc4cccc5c4n3CCN5C)n(C)c12` [Example 25] the value was greater than 5 µM; for `COc1cc(C(=O)N2C[C@H](N)C[C@@H](F)C2)cc2nc(-c3cc4cccc5c4n3CCN5Cc3cnn(C)c3)n(C)c12` [Example 26, ((3R,5R)-3-amino-5-fluoropiperidin-1-yl)(7-methoxy-1-methyl-2-(1-((1-methyl-1H-pyrazol-4-yl)methyl)-2,3-dihydro-1H-pyrrolo[1,2,3-de]quinoxalin-5-yl)-1H-benzo[d]imidazol-5-yl)methanone], 0.5 to 5 µM.
For `COc1cc(C(=O)N2CCC[C@@H](N)C2)cc2nc(-c3cc4cccc5c4n3CCN5CCCOC(=O)NC3CC3)n(C)c12` [Example 27, (R)-3-(5-(5-(3-aminopiperidine-1-carbonyl)-7-methoxy-1-methyl-1H-benzo[d]imidazol-2-yl)-2,3-dihydro-1H-pyrrolo[1,2,3-de]quinoxalin-1-yl)propyl cyclopropylcarbamate] the value was 0.5 to 5 µM.
For `COc1cc(C(=O)N2C[C@H](N)C[C@@H](F)C2)cc2nc(-c3cc4cccc5c4n3CCN5C(=O)CO)n(C)c12` [Example 28, 1-(5-(5-((3R,5R)-3-amino-5-fluoropiperidine-1-carbonyl)-7-methoxy-1-methyl-1H-benzo[d]imidazol-2-yl)-2,3-dihydro-1H-pyrrolo[1,2,3-de]quinoxalin-1-yl)-2-hydroxyethan-1-one] the value was 0.5 to 5 µM; for `COc1cc(C(=O)N2C[C@H](N)C[C@@H](F)C2)cc2nc(-c3cc4cccc5c4n3CCN5C(=O)COC(C)=O)n(C)c12` [Example 29, 2-(5-(5-((3R,5R)-3-amino-5-fluoropiperidine-1-carbonyl)-7-methoxy-1-methyl-1H-benzo[d]imidazol-2-yl)-2,3-dihydro-1H-pyrrolo[1,2,3-de]quinoxalin-1-yl)-2-oxoethyl acetate)], 0.5 to 5 µM.
Regarding `COc1cc(C(=O)N2C[C@H](N)C[C@@H](F)C2)cc2nc(-c3cc4cccc5c4n3CCN5C(=O)CC#N)n(C)c12` [Example 30, 3-(5-(5-((3R,5R)-3-amino-5-fluoropiperidine-1-carbonyl)-7-methoxy-1-methyl-1H-benzo[d]imidazol-2-yl)-2,3-dihydro-1H-pyrrolo[1,2,3-de]quinoxalin-1-yl)-3-oxopropanenitrile], the IC50 is greater than 5 µM.
As for `COc1cc(C(=O)N2CCC[C@@H](N)C2)cc2nc(-c3cc4cccc5c4n3CCN5C(=O)c3ccccc3)n(C)c12` [Example 31, (R)-(3-aminopiperidin-1-yl)(2-(1-benzoyl-2,3-dihydro-1H-pyrrolo[1,2,3-de]quinoxalin-5-yl)-7-methoxy-1-methyl-1H-benzo[d]imidazol-5-yl)methanone], the IC50 was greater than 5 µM.
For `COc1cc(C(=O)N2CCC[C@@H](N)C2)cc2nc(-c3cc4cccc5c4n3CCN5C3CC(N)C3)n(C)c12` (stereo partly drawn) [Example 32, (R)-(2-(1-(3-aminocyclobutyl)-2,3-dihydro-1H-pyrrolo[1,2,3-de]quinoxalin-5-yl)-7-methoxy-1-methyl-1H-benzo[d]imidazol-5-yl)(3-aminopiperidin-1-yl)methanone] the value was 0.5 to 5 µM; for `COc1cc(C(=O)N2CCC[C@@H](N)C2)cc2nc(-c3cc4cccc5c4n3CCN5C3CC(NC(C)=O)C3)n(C)c12` (stereo partly drawn) [Example 33, (R)—N-(3-(5-(5-(3-aminopiperidine-1-carbonyl)-7-methoxy-1-methyl-1H-benzo[d]imidazol-2-yl)-2,3-dihydro-1H-pyrrolo[1,2,3-de]quinoxalin-1-yl)cyclobutyl)acetamide], 0.5 to 5 µM.
To `COc1cc(C(=O)N2C[C@H](N)C[C@@H](F)C2)cc2nc(-c3cc4cccc5c4n3CCN5CCCO)n(Cc3ccc(F)cc3)c12` [Example 36, ((3R,5R)-3-amino-5-fluoropiperidin-1-yl)(1-(4-fluorobenzyl)-2-(1-(3-hydroxypropyl)-2,3-dihydro-1H-pyrrolo[1,2,3-de]quinoxalin-5-yl)-7-methoxy-1H-benzo[d]imidazol-5-yl)methanone] belongs 0.1 to 0.5 µM.
For `CCn1cc(Cn2c(-c3cc4cccc5c4n3CCN5CCO)nc3cc(C(=O)N4C[C@H](N)C[C@@H](F)C4)cc(F)c32)cn1` [Example 39, ((3R,5R)-3-amino-5-fluoropiperidin-1-yl)(1-((1-ethyl-1H-pyrazol-4-yl)methyl)-7-fluoro-2-(1-(2-hydroxyethyl)-2,3-dihydro-1H-pyrrolo[1,2,3-de]quinoxalin-5-yl)-1H-benzo[d]imidazol-5-yl)methanone] the value was 0.1 to 0.5 µM; for `CCn1cc(Cn2c(-c3cc4cccc5c4n3CCN5CCCOC)nc3cc(C(=O)N4C[C@H](N)C[C@@H](F)C4)cc(F)c32)cn1` [Example 41, ((3R,5R)-3-amino-5-fluoropiperidin-1-yl)(1-((1-ethyl-1H-pyrazol-4-yl)methyl)-7-fluoro-2-(1-(3-methoxypropyl)-2,3-dihydro-1H-pyrrolo[1,2,3-de]quinoxalin-5-yl)-1H-benzo[d]imidazol-5-yl)methanone], 0.1 to 0.5 µM.
With `COc1cc(C(=O)N2C[C@H]3CC[C@@H]2[C@@H]3N)cc2nc(-c3cc4cccc5c4n3CCN5CCCO)n(Cc3cnn(C)c3)c12` [Example 45, ((1R,4R,7R)-7-amino-2-azabicyclo[2.2.1]heptan-2-yl)(2-(1-(3-hydroxypropyl)-2,3-dihydro-1H-pyrrolo[1,2,3-de]quinoxalin-5-yl)-7-methoxy-1-((1-methyl-1H-pyrazol-4-yl)methyl)-1H-benzo[d]imidazol-5-yl)methanone], the IC50 was greater than 5 µM.
For `COc1cc(C(=O)N2C[C@H](N)C[C@@H](F)C2)cc2nc(-c3cc4cccc5c4n3CCN5CCCO)n(CC(F)F)c12` [Example 51, ((3R,5R)-3-amino-5-fluoropiperidin-1-yl)(1-(2,2-difluoroethyl)-2-(1-(3-hydroxypropyl)-2,3-dihydro-1H-pyrrolo[1,2,3-de]quinoxalin-5-yl)-7-methoxy-1H-benzo[d]imidazol-5-yl)methanone] the value was 0.1 to 0.5 µM; for `COc1cc(C(=O)N2CCC3(CC3N)C2)cc2nc(-c3cc4cccc5c4n3CCN5CCCO)n(CC3CC3)c12` (centres unmarked) [Example 52, (1-amino-5-azaspiro[2.4]heptan-5-yl)(1-(cyclopropylmethyl)-2-(1-(3-hydroxypropyl)-2,3-dihydro-1H-pyrrolo[1,2,3-de]quinoxalin-5-yl)-7-methoxy-1H-benzo[d]imidazol-5-yl)methanone], greater than 5 µM.
For `COc1cc(C(=O)N2CC3CNC3C2)cc2nc(-c3cc4cccc5c4n3CCN5CCCO)n(CC3CC3)c12` (centres unmarked) [Example 53, (3,6-diazabicyclo[3.2.0]heptan-3-yl)(1-(cyclopropylmethyl)-2-(1-(3-hydroxypropyl)-2,3-dihydro-1H-pyrrolo[1,2,3-de]quinoxalin-5-yl)-7-methoxy-1H-benzo[d]imidazol-5-yl)methanone] the value was greater than 5 µM; for `COc1cc(C(=O)N2CC3C(N)C3C2)cc2nc(-c3cc4cccc5c4n3CCN5CCCO)n(CC3CC3)c12` (centres unmarked) [Example 54, (6-amino-3-azabicyclo[3.1.0]hexan-3-yl)(1-(cyclopropylmethyl)-2-(1-(3-hydroxypropyl)-2,3-dihydro-1H-pyrrolo[1,2,3-de]quinoxalin-5-yl)-7-methoxy-1H-benzo[d]imidazol-5-yl)methanone], greater than 5 µM; for `COc1cc(C(=O)N2CCC3CC3(N)C2)cc2nc(-c3cc4cccc5c4n3CCN5CCCO)n(CC3CC3)c12` (centres unmarked) [Example 55, (1-amino-3-azabicyclo[4.1.0]heptan-3-yl)(1-(cyclopropylmethyl)-2-(1-(3-hydroxypropyl)-2,3-dihydro-1H-pyrrolo[1,2,3-de]quinoxalin-5-yl)-7-methoxy-1H-benzo[d]imidazol-5-yl)methanone], 0.5 to 5 µM.
For `COc1cc(C(=O)N2CCC3(CC2)CC3N)cc2nc(-c3cc4cccc5c4n3CCN5CCCO)n(CC3CC3)c12` (centres unmarked) [Example 56, (1-amino-6-azaspiro[2.5]octan-6-yl)(1-(cyclopropylmethyl)-2-(1-(3-hydroxypropyl)-2,3-dihydro-1H-pyrrolo[1,2,3-de]quinoxalin-5-yl)-7-methoxy-1H-benzo[d]imidazol-5-yl)methanone] the value was greater than 5 µM.
